From ChEMBL document CHEMBL1201861, “Genomics of Drug Sensitity in Cancer screening data, Wellcome Trust Sanger Institute”

Legend:
Assay in all cases: cells
[1] = tested on: COLO-800; format: functional, cell-based, Homo sapiens; conditions: Homo sapiens, COLO-800;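 further: growth inhibition of COLO-800 cells, read out with a cell viability assay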
Description: SANGER: Inhibition of human COLO-800 cell growth in a cell viability assay.

[2] = tested on: D283 Med; format: functional, cell-based, Homo sapiens; conditions: Homo sapiens, D283 Med
Description: SANGER: Inhibition of human D-283MED cell growth in a cell viability assay.

[3] = tested on: DK-MG; format: functional, cell-based, Homo sapiens; conditions: Homo sapiens, DK-MG;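 further: growth inhibition of DK-MG cells, read out with a cell viability assay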
Description: SANGER: Inhibition of human DK-MG cell growth in a cell viability assay.

[4] = tested on: ES6; format: functional, cell-based, Homo sapiens; conditions: Homo sapiens, ES6;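 further: growth inhibition of human ES6 cells, read out with a cell viability assay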
Description: SANGER: Inhibition of human ES6 cell growth in a cell viability assay.

[5] = tested on: EW-11; format: functional, cell-based, Homo sapiens; conditions: Homo sapiens, EW-11;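 further: growth inhibition of human EW-11 cells, measured with a cell viability assay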
Description: SANGER: Inhibition of human EW-11 cell growth in a cell viability assay.

[6] = tested on: EW-3; format: functional, cell-based; conditions: Homo sapiens;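 further: cell viability assay read-out, IC50 reflects inhibition of growth of the EW-3 cells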
Description: SANGER: Inhibition of human EW-3 cell growth in a cell viability assay.

[7] = tested on: GAK; format: functional, cell-based, Homo sapiens; conditions: Homo sapiens, GAK;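 further: cell growth inhibition read out by a cell viability assay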
Description: SANGER: Inhibition of human GAK cell growth in a cell viability assay.

[8] = tested on: HCC1937; format: functional, cell-based, Homo sapiens; conditions: Homo sapiens, HCC1937;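 further: growth inhibition measured with a cell viability read-out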
Description: SANGER: Inhibition of human HCC1937 cell growth in a cell viability assay.

[9] = tested on: HCC1954; format: functional, cell-based, Homo sapiens; conditions: Homo sapiens, HCC1954;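 further: growth inhibition of human HCC1954 cells, read out with a cell viability assay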
Description: SANGER: Inhibition of human HCC1954 cell growth in a cell viability assay.

[10] = tested on: HCC2218; format: functional, cell-based; conditions: Homo sapiens;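 further: cell viability assay read-out, with IC50 given as the concentration that inhibits growth of the cell line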
Description: SANGER: Inhibition of human HCC2218 cell growth in a cell viability assay.

[11] = tested on: Huh-7; format: functional, cell-based, Homo sapiens; conditions: Homo sapiens, Huh-7;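 further: HuH-7 cell growth inhibition, read out with a cell viability assay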
Description: SANGER: Inhibition of human HuH-7 cell growth in a cell viability assay.

[12] = tested on: IA-LM; format: functional, cell-based, Homo sapiens; conditions: Homo sapiens, IA-LM;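 further: cell viability assay measuring growth inhibition of human IA-LM cells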
Description: SANGER: Inhibition of human IA-LM cell growth in a cell viability assay.

[13] = tested on: IST-SL1; format: functional, cell-based, Homo sapiens; conditions: Homo sapiens, IST-SL1;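 further: growth inhibition of human IST-SL1 cells, read out with a cell viability assay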
Description: SANGER: Inhibition of human IST-SL1 cell growth in a cell viability assay.

[14] = tested on: KE-37; format: functional, cell-based; conditions: Homo sapiens;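 further: growth inhibition of KE-37 cells, read out with a cell viability assay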
Description: SANGER: Inhibition of human KE-37 cell growth in a cell viability assay.

[15] = tested on: KLE; format: functional, cell-based, Homo sapiens; conditions: Homo sapiens, KLE;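 further: growth inhibition of human KLE cells, read out with a cell viability assay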
Description: SANGER: Inhibition of human KLE cell growth in a cell viability assay.

[16] = tested on: KS-1; format: functional, cell-based, Homo sapiens; conditions: Homo sapiens, KS-1;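 further: growth inhibition of KS-1 cells, read out with a cell viability assay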
Description: SANGER: Inhibition of human KS-1 cell growth in a cell viability assay.

[17] = tested on: LAN-6; format: functional, cell-based, Homo sapiens; conditions: Homo sapiens, LAN-6;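 further: growth inhibition of LAN-6 cells, determined with a cell viability assay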
Description: SANGER: Inhibition of human LAN-6 cell growth in a cell viability assay.

[18] = tested on: LS-123; format: functional, cell-based, Homo sapiens; conditions: Homo sapiens, LS-123
Description: SANGER: Inhibition of human LS-123 cell growth in a cell viability assay.

[19] = tested on: MC-IXC; format: functional, cell-based, Homo sapiens; conditions: Homo sapiens, MC-IXC;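 further: growth inhibition of MC-IXC cells, read out with a cell viability assay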
Description: SANGER: Inhibition of human MC-IXC cell growth in a cell viability assay.

[20] = tested on: MDA-MB-453; format: functional, cell-based, Homo sapiens; conditions: Homo sapiens, MDA-MB-453
Description: SANGER: Inhibition of human MDA-MB-453 cell growth in a cell viability assay.

[21] = tested on: MEG-01; format: functional, cell-based; conditions: Homo sapiens;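 further: growth inhibition of MEG-01 cells, read out by a cell viability assay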
Description: SANGER: Inhibition of human MEG-01 cell growth in a cell viability assay.

[22] = tested on: MKN-1; format: functional, cell-based, Homo sapiens; conditions: Homo sapiens, MKN-1;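 further: growth inhibition of human MKN1 cells, read out by a cell viability measurement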
Description: SANGER: Inhibition of human MKN1 cell growth in a cell viability assay.

[23] = tested on: NCI-H1437; format: functional, cell-based, Homo sapiens; conditions: Homo sapiens, NCI-H1437;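 further: growth inhibition of human NCI-H1437 cells, read out by a cell viability assay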
Description: SANGER: Inhibition of human NCI-H1437 cell growth in a cell viability assay.

[24] = tested on: NCI-H1581; format: functional, cell-based, Homo sapiens; conditions: Homo sapiens, NCI-H1581;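 further: cell growth inhibition read out by a viability assay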
Description: SANGER: Inhibition of human NCI-H1581 cell growth in a cell viability assay.

[25] = tested on: NCI-H2122; format: functional, cell-based, Homo sapiens; conditions: Homo sapiens, NCI-H2122;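 further: growth inhibition of the cells, read out with a cell viability assay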
Description: SANGER: Inhibition of human NCI-H2122 cell growth in a cell viability assay.

[26] = tested on: NCI-H2347; format: functional, cell-based, Homo sapiens; conditions: Homo sapiens, NCI-H2347;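 further: growth inhibition of the cell line, read out with a cell viability assay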
Description: SANGER: Inhibition of human NCI-H2347 cell growth in a cell viability assay.

[27] = tested on: NY; format: functional, cell-based, Homo sapiens; conditions: Homo sapiens, NY
Description: SANGER: Inhibition of human NY cell growth in a cell viability assay.

[28] = tested on: OVCAR-5; format: functional, cell-based, Homo sapiens; conditions: Homo sapiens, OVCAR-5;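 further: growth inhibition of human OVCAR-5 cells, read out with a cell viability assay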
Description: SANGER: Inhibition of human OVCAR-5 cell growth in a cell viability assay.

[29] = tested on: RD; format: functional, cell-based, Homo sapiens; conditions: Homo sapiens, RD
Description: SANGER: Inhibition of human RD cell growth in a cell viability assay.

[30] = tested on: RPMI-2650; format: functional, cell-based, Homo sapiens; conditions: Homo sapiens, RPMI-2650
Description: SANGER: Inhibition of human RPMI-2650 cell growth in a cell viability assay.

[31] = tested on: SBC-1; format: functional, cell-based; conditions: Homo sapiens;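 further: cell viability assay measuring growth inhibition of the SBC-1 cell line, IC50 being the concentration that halves growth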
Description: SANGER: Inhibition of human SBC-1 cell growth in a cell viability assay.

[32] = tested on: SF-268; format: functional, cell-based, Homo sapiens; conditions: Homo sapiens, SF-268;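 further: growth inhibition of SF-268 cells determined with a cell viability assay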
Description: SANGER: Inhibition of human SF268 cell growth in a cell viability assay.

[33] = tested on: SK-PN-DW; format: functional, cell-based; conditions: Homo sapiens;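 further: growth inhibition measured with a viability assay on these cells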
Description: SANGER: Inhibition of human SK-PN-DW cell growth in a cell viability assay.

[34] = tested on: SN12C; format: functional, cell-based, Homo sapiens; conditions: Homo sapiens, SN12C;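 further: growth inhibition of human SN12C cells, measured by a cell viability assay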
Description: SANGER: Inhibition of human SN12C cell growth in a cell viability assay.

[35] = tested on: SNU-449; format: functional, cell-based, Homo sapiens; conditions: Homo sapiens, SNU-449
Description: SANGER: Inhibition of human SNU-449 cell growth in a cell viability assay.

[36] = tested on: SW982; format: functional, cell-based; conditions: Homo sapiens;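 further: growth inhibition of SW982 cells, read out with a cell viability assay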
Description: SANGER: Inhibition of human SW982 cell growth in a cell viability assay.

[37] = tested on: SAOS-2; format: functional, cell-based, Homo sapiens; conditions: Homo sapiens, SAOS-2;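 further: growth inhibition of human Saos-2 cells determined by a cell viability assay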
Description: SANGER: Inhibition of human Saos-2 cell growth in a cell viability assay.

[38] = tested on: 5637; format: functional, cell-based, Homo sapiens; conditions: Homo sapiens
Description: SANGER: Inhibition of human 5637 cell growth in a cell viability assay.

[39] = tested on: 639-V; format: functional, cell-based, Homo sapiens; conditions: Homo sapiens, 639-V;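 further: growth inhibition of 639-V cells, read out with a cell viability assay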
Description: SANGER: Inhibition of human 639-V cell growth in a cell viability assay.

[40] = tested on: A388; format: functional, cell-based, Homo sapiens; conditions: Homo sapiens, A388;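 further: growth inhibition of human A388 cells, read out with a cell viability assay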
Description: SANGER: Inhibition of human A388 cell growth in a cell viability assay.

[41] = tested on: A4-Fuk; format: functional, cell-based; conditions: Homo sapiens;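 further: growth inhibition of A4-Fuk cells, read out by a cell viability assay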
Description: SANGER: Inhibition of human A4-Fuk cell growth in a cell viability assay.

[42] = tested on: ALL-PO; format: functional, cell-based; conditions: Homo sapiens;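 further: growth inhibition of ALL-PO cells, read out by a cell viability assay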
Description: SANGER: Inhibition of human ALL-PO cell growth in a cell viability assay.

[43] = tested on: AN3-CA; format: functional, cell-based; conditions: Homo sapiens;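 further: growth inhibition of human AN3-CA cells measured by a cell viability assay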
Description: SANGER: Inhibition of human AN3-CA cell growth in a cell viability assay.

[44] = tested on: BHT-101; format: functional, cell-based, Homo sapiens; conditions: Homo sapiens, BHT-101
Description: SANGER: Inhibition of human BHT-101 cell growth in a cell viability assay.

[45] = tested on: C3A; format: functional, cell-based, Homo sapiens; conditions: Homo sapiens, C3A;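 further: growth inhibition of C3A human cells, quantified with a cell viability readout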
Description: SANGER: Inhibition of human C3A cell growth in a cell viability assay.

[46] = tested on: CAL-120; format: functional, cell-based, Homo sapiens; conditions: Homo sapiens, CAL-120;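 further: cell growth inhibition, read out as cell viability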
Description: SANGER: Inhibition of human CAL-120 cell growth in a cell viability assay.

[47] = tested on: CAL-51; format: functional, cell-based, Homo sapiens; conditions: Homo sapiens, CAL-51;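 further: human CAL-51 cell line, growth inhibition read out via a cell viability assay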
Description: SANGER: Inhibition of human CAL-51 cell growth in a cell viability assay.

[48] = tested on: VA-ES-BJ; format: functional, cell-based, Homo sapiens; conditions: Homo sapiens, VA-ES-BJ;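 further: growth inhibition of the VA-ES-BJ cell line, read out by a cell viability assay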
Description: SANGER: Inhibition of human VA-ES-BJ cell growth in a cell viability assay.

[49] = tested on: WM-115; format: functional, cell-based, Homo sapiens; conditions: Homo sapiens, WM-115
Description: SANGER: Inhibition of human WM-115 cell growth in a cell viability assay.

[50] = tested on: CAMA-1; format: functional, cell-based, Homo sapiens; conditions: Homo sapiens, CAMA-1;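 further: growth inhibition of CAMA-1 cells, read out with a cell viability assay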
Description: SANGER: Inhibition of human CAMA-1 cell growth in a cell viability assay.

## COc1cc(F)c(F)c(Nc2ccc(I)cc2F)c1NS(=O)(=O)C1(CC(O)CO)CC1 (stereo not given)
[1]
  IC50: > 5 µM
[2]
  IC50: > 5 µM
[3]
  IC50: 2.83 µM
[4]
  IC50: > 5 µM
[5]
  IC50: > 5 µM
[6]
  IC50: 0.103 µM
[7]
  IC50: 0.565 µM
[8]
  IC50: > 5 µM
[9]
  IC50: > 5 µM
[10]
  IC50: > 5 µM
[11]
  IC50: 1.47 µM
[12]
  IC50: 4.19 µM
[13]
  IC50: > 5 µM
[14]
  IC50: > 5 µM
[15]
  IC50: > 5 µM
[16]
  IC50: 1.26 µM
[17]
  IC50: 0.521 µM
[18]
  IC50: 2.51 µM
[19]
  IC50: > 5 µM
[20]
  IC50: > 5 µM
[21]
  IC50: 0.786 µM
[22]
  IC50: > 5 µM
[23]
  IC50: 0.702 µM
[24]
  IC50: > 5 µM
[25]
  IC50: 2.17 µM
[26]
  IC50: 0.868 µM
[27]
  IC50: > 5 µM
[28]
  IC50: 0.234 µM
[29]
  IC50: 3.28 µM
[30]
  IC50: > 5 µM
[31]
  IC50: > 5 µM
[32]
  IC50: > 5 µM
[33]
  IC50: > 5 µM
[34]
  IC50: > 5 µM
[35]
  IC50: 3.85 µM
[36]
  IC50: 0.436 µM
[37]
  IC50: > 5 µM
[38]
  IC50: > 5 µM
[39]
  IC50: > 5 µM
[40]
  IC50: > 5 µM
[41]
  IC50: 1.85 µM
[42]
  IC50: > 5 µM
[43]
  IC50: > 5 µM
[44]
  IC50: 0.106 µM
[45]
  IC50: > 5 µM
[46]
  IC50: > 5 µM
[47]
  IC50: > 5 µM
[48]
  IC50: > 5 µM
[49]
  IC50: 0.421 µM
[50]
  IC50: > 5 µM

## O=C1N=C(NCc2cccs2)S/C1=C\c1ccc2ncccc2c1
[1]
  IC50: > 5 µM
[2]
  IC50: > 5 µM
[3]
  IC50: > 5 µM
[4]
  IC50: > 5 µM
[5]
  IC50: > 5 µM
[6]
  IC50: > 5 µM
[7]
  IC50: > 5 µM
[8]
  IC50: > 5 µM
[9]
  IC50: > 5 µM
[10]
  IC50: > 5 µM
[11]
  IC50: > 5 µM
[12]
  IC50: > 5 µM
[13]
  IC50: > 5 µM
[14]
  IC50: > 5 µM
[15]
  IC50: > 5 µM
[16]
  IC50: > 5 µM
[17]
  IC50: > 5 µM
[18]
  IC50: > 5 µM
[19]
  IC50: > 5 µM
[20]
  IC50: > 5 µM
[21]
  IC50: > 5 µM
[22]
  IC50: > 5 µM
[23]
  IC50: > 5 µM
[24]
  IC50: > 5 µM
[25]
  IC50: > 5 µM
[26]
  IC50: > 5 µM
[27]
  IC50: > 5 µM
[28]
  IC50: > 5 µM
[29]
  IC50: > 5 µM
[30]
  IC50: > 5 µM
[31]
  IC50: > 5 µM
[32]
  IC50: > 5 µM
[33]
  IC50: > 5 µM
[34]
  IC50: > 5 µM
[35]
  IC50: > 5 µM
[36]
  IC50: > 5 µM
[37]
  IC50: > 5 µM
[38]
  IC50: 3.09 µM
[39]
  IC50: 2.28 µM
[40]
  IC50: > 5 µM
[41]
  IC50: 2.06 µM
[42]
  IC50: 1.91 µM
[43]
  IC50: > 5 µM
[44]
  IC50: > 5 µM
[45]
  IC50: > 5 µM
[46]
  IC50: > 5 µM
[47]
  IC50: > 5 µM
[48]
  IC50: > 5 µM
[49]
  IC50: > 5 µM
[50]
  IC50: > 5 µM
